Consider one compound from patent EP4610262A1, “MACROCYCLIC COMPOUND AS CDK9 INHIBITOR AND USE THEREOF” (Artivila Biopharma, priority 2022, dated 2024).

Like-named read-outs stand apart in the source and are kept apart here.

Holding throughout (type): biochemical
For assay [1], the target named is CDK5/p25NCK (Homo sapiens, UniProt Q00535). Briefly: CDK kinase selectivity (HTRF / ADP-Glo). The conditions noted are these: compound at 0.1 µM; read-out: Inhibition rate CDK5/p25NCK. As for the experimental part:
(§1) The selectivity of the test compounds against CDK kinases was detected. The compounds were tested at a concentration of 0.1 µM, and the inhibition rate of CDK kinases by the compounds was detected in duplicate wells, mainly using HTRF and ADP-Glo detection methods.
(§2) The HTRF detection method was conducted as follows: 2-fold ATP/substrate solution and 2-fold kinase/metal ion solution were prepared respectively with a kinase reaction buffer, and 25 nL of diluted compound solution was transferred to a 384-well detection plate with Echo 655. After centrifugation, the plate was added with 2.5 µL of 2-fold kinase/metal ion solution and incubated at 25°C for 10 minutes. After 10 minutes, 2.5 µL of 2-fold substrate/ATP solution was added to the 384-well detection plate and incubated at 25°C for 60 minutes. 2 kinase detection reagent (XL665 and antibody) was prepared with detection buffer, and 5 µL of kinase detection reagent was added to the 384-well detection plate and incubated at 25°C for 60 minutes. The fluorescence signals at 620 nm (Cryptate) and 665 nm (XL665) were read by the microplate reader, and the ratio and the inhibition rate of kinase activity by the compound were calculated.
(§3) The ADP-Glo detection method was conducted as follows. 2-fold ATP/substrate solution and 2-fold kinase/metal ion solution were prepared respectively with a kinase reaction buffer. 20 nL of diluted compound solution was transferred to a 384-well detection plate by Echo 655. After centrifuged, the 384-well detection plate was added with 2 µL of 2 × kinase/metal ion solution, and incubated at 25°C for 10 minutes. After 10 minutes, the 384-well detection plate was added with 2 µL of 2 × substrate/ATP solution and incubated at 25°C for 60 minutes. 4 µL of ADP-Glo reagent was added to each well and incubated at room temperature for 40 minutes. 10 µL of ADP detection reagent was added to each well and incubated at room temperature for 40 minutes. The chemiluminescent signal was detected with a microplate reader and the inhibition rate of kinase activity was calculated.
For orientation: TR-FRET usually uses a lanthanide donor and a delayed reading to cut background.

Assay [2] addresses CDK4/CycD3 (Homo sapiens, UniProt P11802). The assay is described as follows: CDK kinase selectivity (HTRF / ADP-Glo). The conditions noted are these: compound at 0.1 µM; read-out: Inhibition rate CDK4/CycD3. As for the experimental part: as §1, §2, §3
The target in assay [3] is CDK18/CyclinY (Homo sapiens, UniProt Q07002). Briefly: CDK kinase selectivity (HTRF / ADP-Glo). The conditions noted are these: compound at 0.1 µM; read-out: Inhibition rate CDK18/CyclinY. As for the experimental part: as §1, §2, §3
Assay [4] has as its target CDK16/CyclinY (Homo sapiens, UniProt Q00536). Briefly: CDK kinase selectivity (HTRF / ADP-Glo). As to conditions: compound at 0.1 µM; read-out: Inhibition rate CDK16/CyclinY. As for the experimental part:
as §1, §2, §3

Assay [5] addresses CDK7/CycH/MAT1 (Homo sapiens, UniProt P50613). Briefly: CDK kinase selectivity (HTRF / ADP-Glo). As to conditions: compound at 0.1 µM; read-out: Inhibition rate CDK7/CycH/MAT1. As for the experimental part: as §1, §2, §3
The target of assay [6] is CDK2/CycE1 (Homo sapiens, UniProt P24941). Briefly: CDK kinase selectivity (HTRF / ADP-Glo). The conditions noted are these: compound at 0.1 µM; read-out: Inhibition rate CDK2/CycE1. As for the experimental part: as §1, §2, §3
Assay [7] concerns the target CDK1/CycA2 (Homo sapiens, UniProt P06493). Briefly: CDK kinase selectivity (HTRF / ADP-Glo). The conditions noted are these: compound at 0.1 µM; read-out: Inhibition rate CDK1/CycA2. As for the experimental part:
as §1, §2, §3

Assay [8] has as its target CDK4/cycD1 (Homo sapiens, UniProt P11802). The assay is described as follows: CDK kinase selectivity (HTRF / ADP-Glo). The conditions noted are these: compound at 0.1 µM; read-out: Inhibition rate CDK4/cycD1. As for the experimental part: as §1, §2, §3
Assay [9] concerns the target CDK9/CycT1 (Homo sapiens, UniProt P50750). Briefly: CDK kinase selectivity (HTRF / ADP-Glo). The conditions noted are these: compound at 0.1 µM; read-out: Inhibition rate CDK9/CycT1. As for the experimental part: as §1, §2, §3
The target of assay [10] is CDK5/p35NCK (Homo sapiens, UniProt Q00535). The assay is described as follows: CDK kinase selectivity (HTRF / ADP-Glo). As to conditions: compound at 0.1 µM; read-out: Inhibition rate CDK5/p35NCK. As for the experimental part:
as §1, §2, §3

Assay [11] addresses CDK12/CyclinK (Homo sapiens, UniProt Q9NYV4). The assay is described as follows: CDK kinase selectivity (HTRF / ADP-Glo). The conditions noted are these: compound at 0.1 µM; read-out: Inhibition rate CDK12/CyclinK. As for the experimental part: as §1, §2, §3
The target in assay [12] is CDK2/CyCA2 (Homo sapiens, UniProt P24941). Briefly: CDK kinase selectivity (HTRF / ADP-Glo). The conditions noted are these: compound at 0.1 µM; read-out: Inhibition rate CDK2/CyCA2. As for the experimental part: as §1, §2, §3
The target of assay [13] is CDK13/CyclinK (Homo sapiens, UniProt Q14004). Briefly: CDK kinase selectivity (HTRF / ADP-Glo). The conditions noted are these: compound at 0.1 µM; read-out: Inhibition rate CDK13/CyclinK. As for the experimental part: as §1, §2, §3
Assay [14] has as its target CDK9 (Homo sapiens, UniProt P50750). Briefly: Inhibition of CDK9 kinase activity (caliper mobility shift assay). As to conditions: for inhibition at 0.01 µM: compound at 10 nM. As for the experimental part: Compounds were tested at a concentration of 10 nM with detection in duplicate wells, or tested at 10 concentrations starting from 10 µM with three-fold serial dilutions, with detection in duplicate wells.
The inhibitory effect of the compounds on the activity of CDK9 protein kinase was detected by the caliper mobility shift assay method. 250 nL of the compound at 100-fold final concentration was transferred to a target 384-well-plate with a dispenser Echo 550. A kinase solution at 2.5-fold final concentration was prepared using 1× kinase buffer. 10 µL of the kinase solution at 2.5-fold final concentration was added to the compound well and positive control well respectively. 10 µL of 1× kinase buffer was added to the negative control well. The 384-well plate was centrifuged at 1000 rpm for 30 seconds and incubated at room temperature for 10 minutes. A mixed solution of ATP and kinase substrate at 5/3-fold final concentration was prepared with 1× kinase buffer, and to the 384-well plate was added with 15 µL per well of the mixed solution of ATP and substrate at 5/3-fold final concentration to start the reaction. The plate was centrifuged at 1000 rpm for 30 seconds, shaken to mix evenly, and incubated at room temperature for a corresponding time. 30 µL of detection stopping solution was added to terminate the kinase reaction. The 384-well plate was centrifuged at 1000 rpm for 30 seconds and shaken to mix evenly. The conversion rate was read with Caliper EZ Reader. The percent conversion inhibition rate = (% positive control conversion rate mean - % sample conversion rate / (% positive control conversion rate mean - % negative control conversion rate mean). Among them: negative control wells represent the conversion rate readings of kinase buffer background wells; positive control wells represent the conversion rate readings of wells without inhibition by compound. With the log value of concentration as the x-axis and the percentage inhibition rate as the y-axis, a dose-response curve was fitted using the log (inhibitor) vs. response -Variable slope of the analysis software GraphPad Prism 5 to obtain the IC50 value of each compound on enzyme activity. Calculation formula: y=Bottom + (Top-Bottom)/(1+10^((LogIC50-x) × hillslope)), x: logarithm of inhibitor concentration; y: % inhibition rate.

CDK9, sequence (P50750 whole entry): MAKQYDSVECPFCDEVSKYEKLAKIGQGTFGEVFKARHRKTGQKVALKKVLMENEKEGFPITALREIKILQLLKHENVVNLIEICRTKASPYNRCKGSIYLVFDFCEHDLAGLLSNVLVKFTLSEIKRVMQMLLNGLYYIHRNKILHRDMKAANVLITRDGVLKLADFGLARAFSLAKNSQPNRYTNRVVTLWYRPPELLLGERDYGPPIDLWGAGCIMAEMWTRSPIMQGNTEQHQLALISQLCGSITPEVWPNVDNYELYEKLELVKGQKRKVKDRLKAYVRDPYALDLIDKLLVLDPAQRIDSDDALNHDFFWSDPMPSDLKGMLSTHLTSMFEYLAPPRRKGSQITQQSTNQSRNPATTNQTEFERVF
CDK9, sequence (O60563 whole entry partner): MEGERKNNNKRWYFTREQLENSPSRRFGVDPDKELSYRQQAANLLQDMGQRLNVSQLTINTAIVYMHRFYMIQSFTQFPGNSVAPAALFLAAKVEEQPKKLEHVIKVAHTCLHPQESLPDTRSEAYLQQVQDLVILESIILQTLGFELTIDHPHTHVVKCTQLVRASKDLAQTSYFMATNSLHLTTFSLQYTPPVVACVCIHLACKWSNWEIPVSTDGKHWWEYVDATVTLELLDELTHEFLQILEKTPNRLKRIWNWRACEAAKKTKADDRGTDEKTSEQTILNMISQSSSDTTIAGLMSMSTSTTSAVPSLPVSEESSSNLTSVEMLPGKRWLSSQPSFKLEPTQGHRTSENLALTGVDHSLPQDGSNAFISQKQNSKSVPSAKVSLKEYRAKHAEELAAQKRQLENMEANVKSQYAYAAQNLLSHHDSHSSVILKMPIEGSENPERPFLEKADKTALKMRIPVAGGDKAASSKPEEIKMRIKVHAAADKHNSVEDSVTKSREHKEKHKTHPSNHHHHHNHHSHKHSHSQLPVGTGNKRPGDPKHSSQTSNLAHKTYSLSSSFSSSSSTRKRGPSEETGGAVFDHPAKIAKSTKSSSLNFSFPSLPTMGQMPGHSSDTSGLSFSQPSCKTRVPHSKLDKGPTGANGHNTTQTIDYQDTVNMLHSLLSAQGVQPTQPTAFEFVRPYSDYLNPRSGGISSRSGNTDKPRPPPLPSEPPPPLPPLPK
CDK9/CycT1, sequence (P50750 whole entry, species assumed): as the sequence (P50750 whole entry) above
CDK9/CycT1, sequence (O60563 whole entry partner, species assumed): as the sequence (O60563 whole entry partner) above
CDK5/p25NCK, sequence (Q00535 whole entry): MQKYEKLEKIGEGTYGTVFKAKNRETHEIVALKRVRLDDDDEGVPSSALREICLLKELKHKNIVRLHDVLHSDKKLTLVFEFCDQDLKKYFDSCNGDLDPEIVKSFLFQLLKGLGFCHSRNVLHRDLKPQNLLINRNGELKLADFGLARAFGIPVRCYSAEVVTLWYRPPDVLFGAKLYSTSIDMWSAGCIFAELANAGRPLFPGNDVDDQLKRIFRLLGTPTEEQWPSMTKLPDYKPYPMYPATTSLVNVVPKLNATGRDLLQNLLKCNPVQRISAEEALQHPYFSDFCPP
CDK5/p25NCK, sequence (Q15078 99-307 partner limits assumed): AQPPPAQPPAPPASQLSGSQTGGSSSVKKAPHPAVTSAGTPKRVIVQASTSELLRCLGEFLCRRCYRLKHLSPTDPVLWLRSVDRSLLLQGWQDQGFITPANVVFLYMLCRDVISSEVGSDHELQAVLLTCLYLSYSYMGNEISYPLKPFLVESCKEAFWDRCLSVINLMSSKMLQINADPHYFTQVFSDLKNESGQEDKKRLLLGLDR
CDK5/p35NCK, sequence (Q00535 whole entry): as the sequence (Q00535 whole entry) above
CDK5/p35NCK, sequence (Q15078 2-307 partner limits assumed): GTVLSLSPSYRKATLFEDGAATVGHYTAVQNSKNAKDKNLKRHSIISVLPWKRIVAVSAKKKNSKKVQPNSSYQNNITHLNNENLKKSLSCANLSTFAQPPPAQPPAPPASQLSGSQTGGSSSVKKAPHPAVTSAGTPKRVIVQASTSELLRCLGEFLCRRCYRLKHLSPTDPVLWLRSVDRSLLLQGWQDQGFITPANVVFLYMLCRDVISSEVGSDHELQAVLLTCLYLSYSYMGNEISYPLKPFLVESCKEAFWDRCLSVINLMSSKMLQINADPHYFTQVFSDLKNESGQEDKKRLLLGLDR
CDK12/CyclinK, sequence (Q9NYV4 whole entry): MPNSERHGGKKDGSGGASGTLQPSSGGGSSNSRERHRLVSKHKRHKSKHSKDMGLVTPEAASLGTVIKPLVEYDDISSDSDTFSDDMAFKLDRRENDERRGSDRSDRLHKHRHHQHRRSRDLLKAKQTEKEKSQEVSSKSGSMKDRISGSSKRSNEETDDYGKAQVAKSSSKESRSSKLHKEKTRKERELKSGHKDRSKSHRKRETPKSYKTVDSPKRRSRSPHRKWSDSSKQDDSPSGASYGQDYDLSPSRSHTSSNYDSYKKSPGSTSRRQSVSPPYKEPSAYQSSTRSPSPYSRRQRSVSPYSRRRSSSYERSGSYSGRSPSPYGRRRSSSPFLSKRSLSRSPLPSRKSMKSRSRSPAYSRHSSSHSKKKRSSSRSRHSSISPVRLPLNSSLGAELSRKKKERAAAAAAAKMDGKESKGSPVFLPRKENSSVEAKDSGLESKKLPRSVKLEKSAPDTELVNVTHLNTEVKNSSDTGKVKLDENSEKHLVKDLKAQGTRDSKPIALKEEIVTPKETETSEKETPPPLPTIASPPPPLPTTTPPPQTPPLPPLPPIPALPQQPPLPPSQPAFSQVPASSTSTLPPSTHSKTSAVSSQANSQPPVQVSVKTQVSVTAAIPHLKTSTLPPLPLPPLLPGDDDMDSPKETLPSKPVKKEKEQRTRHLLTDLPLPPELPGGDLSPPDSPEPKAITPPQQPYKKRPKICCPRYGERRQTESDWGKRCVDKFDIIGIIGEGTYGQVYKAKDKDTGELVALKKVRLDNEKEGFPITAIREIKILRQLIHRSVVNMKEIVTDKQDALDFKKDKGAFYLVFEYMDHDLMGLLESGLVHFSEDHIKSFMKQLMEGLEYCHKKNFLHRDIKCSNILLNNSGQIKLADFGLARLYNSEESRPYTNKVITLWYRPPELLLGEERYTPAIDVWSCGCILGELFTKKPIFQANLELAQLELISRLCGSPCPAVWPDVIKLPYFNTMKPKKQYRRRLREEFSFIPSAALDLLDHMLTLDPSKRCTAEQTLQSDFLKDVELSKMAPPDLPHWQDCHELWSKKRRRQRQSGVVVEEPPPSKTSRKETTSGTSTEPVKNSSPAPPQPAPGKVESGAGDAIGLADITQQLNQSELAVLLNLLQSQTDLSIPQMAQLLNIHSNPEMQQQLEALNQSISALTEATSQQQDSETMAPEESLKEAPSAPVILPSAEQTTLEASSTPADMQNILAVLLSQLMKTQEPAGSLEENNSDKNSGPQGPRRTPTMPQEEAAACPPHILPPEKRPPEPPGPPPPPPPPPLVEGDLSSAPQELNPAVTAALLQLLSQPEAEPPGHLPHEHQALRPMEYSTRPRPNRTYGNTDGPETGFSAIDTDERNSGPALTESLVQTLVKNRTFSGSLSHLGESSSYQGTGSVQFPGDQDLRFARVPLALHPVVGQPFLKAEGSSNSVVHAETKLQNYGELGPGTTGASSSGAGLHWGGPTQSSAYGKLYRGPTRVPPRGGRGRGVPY
CDK12/CyclinK, sequence (O75909 whole entry partner): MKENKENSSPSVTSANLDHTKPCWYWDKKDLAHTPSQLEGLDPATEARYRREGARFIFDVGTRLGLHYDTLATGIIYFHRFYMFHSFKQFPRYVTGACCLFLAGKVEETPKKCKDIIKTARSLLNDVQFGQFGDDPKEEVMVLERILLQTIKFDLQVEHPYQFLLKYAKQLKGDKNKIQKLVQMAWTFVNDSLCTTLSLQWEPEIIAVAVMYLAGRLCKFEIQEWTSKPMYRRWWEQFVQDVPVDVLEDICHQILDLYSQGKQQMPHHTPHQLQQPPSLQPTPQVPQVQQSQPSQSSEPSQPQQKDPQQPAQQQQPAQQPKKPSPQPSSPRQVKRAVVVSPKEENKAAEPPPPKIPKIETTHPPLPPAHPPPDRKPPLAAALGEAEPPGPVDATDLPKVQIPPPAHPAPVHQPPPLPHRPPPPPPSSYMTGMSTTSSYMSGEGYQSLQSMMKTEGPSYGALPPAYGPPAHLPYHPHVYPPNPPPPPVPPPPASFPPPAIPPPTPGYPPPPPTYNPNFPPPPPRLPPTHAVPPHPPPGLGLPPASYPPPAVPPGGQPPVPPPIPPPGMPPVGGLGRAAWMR
CDK4/cycD1, sequence (P11802 whole entry): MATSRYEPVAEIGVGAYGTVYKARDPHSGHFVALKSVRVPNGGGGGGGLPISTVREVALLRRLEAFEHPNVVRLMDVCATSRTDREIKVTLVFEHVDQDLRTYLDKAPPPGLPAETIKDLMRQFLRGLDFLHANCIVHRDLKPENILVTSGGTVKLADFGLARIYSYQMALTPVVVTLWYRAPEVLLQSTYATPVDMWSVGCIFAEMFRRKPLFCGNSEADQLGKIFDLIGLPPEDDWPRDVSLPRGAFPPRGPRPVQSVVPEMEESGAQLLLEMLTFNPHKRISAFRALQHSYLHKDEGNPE
CDK4/cycD1, sequence (P24385 whole entry partner): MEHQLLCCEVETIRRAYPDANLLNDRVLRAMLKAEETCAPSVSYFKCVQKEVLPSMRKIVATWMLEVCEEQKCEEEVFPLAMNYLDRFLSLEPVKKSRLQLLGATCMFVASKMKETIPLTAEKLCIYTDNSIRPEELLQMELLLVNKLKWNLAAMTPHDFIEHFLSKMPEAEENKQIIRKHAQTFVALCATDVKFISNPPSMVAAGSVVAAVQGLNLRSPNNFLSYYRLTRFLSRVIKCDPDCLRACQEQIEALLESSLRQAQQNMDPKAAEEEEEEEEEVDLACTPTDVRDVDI

As to `Clc1cnc2nc1NCCCCCNCc1cccc(c1)N2` [Compound 8, 1^5-chloro-2,5,11-triaza-1(2,4)-pyrimidina-3(1,3)-benzenacyclodecaphane], the inhibition at 0.1 µM in [1] is 50 to 75%; in assay [2], 50 to 75%; in assay [3], less than 50%; in assay [4], 50 to 75%; in assay [5], 50 to 75%; in [6] it was 50 to 75%. Moreover, the inhibition at 0.1 µM in assay [7] is less than 50%; in assay [8], less than 50%; in assay [9], more than 95%; in assay [10] it was less than 50%; in assay [11], 50 to 75%; in [12], less than 50%. For the same compound, the inhibition at 0.1 µM in [13] was 50 to 75%. For the same compound, the 50% inhibitory concentration (IC50) in assay [14] (10 concentrations from 10 µM, three-fold dilutions) was less than 100 nM. Besides, the inhibition at 0.01 µM in [14] (selectivity panel Table 3, read-out: Inhibition rate CDK9) is more than 50%; in assay [14] (read-out: Inhibition rate on CDK9 kinase activity) it was more than 50%.

By IC50 is commonly meant the concentration that inhibits the measured activity by half.
